Patent US20200408775A1, “APPARATUS AND METHOD FOR MULTIPLEXED PROTEIN QUANTIFICATION” (BIOMOTIF AB, priority 2018, published 2020)

System: Human Colon Carcinoma Cells HCT116
Assay: Proteome changes in protein abundance upon drug treatment, 3-channel pI-multiplexing LC MS/MS
Format: cell-based
Conditions: 45 nM Methotrexate for 48 h vs 0.01% DMSO control, p<0.05, 570 proteins quantified, 3 biological replicates
Procedure: A three-channel isoelectric point-based multiplexing was applied for the analysis of proteome changes in protein abundance upon drug treatment, using the following procedure:
Human Colon Carcinoma Cells HCT116 were cultured at 37° C. with 5% CO2 in high-glucose Dulbecco's Modified Eagle's Medium (DMEM, Thermo Fisher Scientific) supplemented with 10% fetal bovine serum (Gibco) and 1% penicillin/streptomycin (Gibco). The cells were treated for 48 h with 45 nM Methotrexate in 0.01% dimethyl sulfoxide (DMSO). As a control experiment, cells were treated with 0.01% DMSO. The medium containing the drug (or 0.01% DMSO for the control) was replaced each 24 h by fresh medium. A total of 3 control samples and 3 treated samples were produced.
Cells (1 million cells per replicate sample) were washed twice with PBS (1 mL) and resuspended in 300 μL of lysis buffer (3% SDC, 20 mM EPPS, pH 8.5). The total protein concentration was measured using the BCA protein assay kit (Pierce) in accordance with the manufacturer's protocol. […]
6. Samples were analyzed together within MaxQuant (1% FDR and match between runs) and Quanty quantification software (1% FDR). Isoelectric point calculations were in-silico calculated as described in Pirmoradian M et al 2014. Proteins containing at least 1 peptide on each pI-channel were selected for quantification.

CN(Cc1cnc2nc(N)nc(N)c2n1)c1ccc(C(=O)N[C@@H](CCC(=O)O)C(=O)O)cc1 [Methotrexate]
number of proteins that demonstrated a statistical difference between the control and treated: 4
